system: purified human Hsp90; test: Binding Assay: fluorescence polarization with BODIPY-labeled geldanamycin; conditions: 5 μM compound, BODIPY-GM 10 nM, Hsp90 30 nM
How it was run: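 Compounds in 2% DMSO final compete with 10 nM BODIPY-GM for 30 nM purified human Hsp90, incubated overnight at room temperature in pH 7.3 HEPES buffer containing Na2MoO4 and DTT. Polarization (mP, ex/em 485/530) normalized to DMSO gives percent inhibition; autofluorescence-confounded data excluded.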

% Inhibition at 5 μM Compound Concentration | Compound
0.00% | COc1c(F)cc(Sc2nc3c(N)ncn(CCC4CCN(C(C)=O)CC4)c-3n2)cc1Cl [Example 570, 3-[2-(1-Acetylpiperidin-4-yl)ethyl]-8-[(3-chloro-5-fluoro-4-methoxyphenyl)thio]-3 H-purin-6-amine]
0.00% | CC(=O)N1CCC(CCn2cnc(N)c3nc(Sc4ccc5c(c4)OC(F)(F)O5)nc2-3)CC1 [Example 572, 3-[2-(1-Acetylpiperidin-4-yl)ethyl]-8-[(2,2-difluoro-1,3-benzodioxol-5-yl)thio]-3 H-purin-6-amine]
31% | N#CC1CCN(CCn2c(Sc3cc4c(cc3Br)OCO4)nc3ncnc(N)c32)CC1 [Example 576, 1-(2-{6-Amino-8-[(6-bromo-1,3-benzodioxol-5-yl)thio]-7 H-purin-7-yl}ethyl)piperidine-4 - carbonitrile]
55.00% | CC(C)N1CCC(CCn2c(Sc3cc4c(cc3Br)OCO4)nc3ncnc(N)c32)CC1 [Example 583, 8-[(6-Bromo-1,3-benzodioxol-5-yl)thio]-7-[2-(1-isopropylpiperidin-4-yl)ethyl]-7 H-purin-6-amine]
43.00% | COc1ccc(CN2CCC(CCn3cnc(N)c4nc(Sc5cc6c(cc5Br)OCO6)nc3-4)CC2)cc1 [Example 595, 8-[(6-Bromo-1,3-benzodioxol-5-yl)thio]-3-{2-[1-(4-methoxybenzyl)piperidin-4-yl]ethyl}-3 H-purin-6-amine]
31.00% | Nc1ncn(CCC2CCN(C=O)CC2)c2nc(Sc3cc4c(cc3Br)OCO4)nc1-2 [Example 602, 4-(2-{6-Amino-8-[(6-bromo-1,3-benzodioxol-5-yl)thio]-3 H-purin-3-yl}ethyl)piperidine-1-carbaldehyde]
4.00% | Nc1ncn(CC[C@H]2CCCN(C=O)C2)c2nc(Sc3cc4c(cc3Br)OCO4)nc1-2 [Example 603, (3R)-3-(2-{6-Amino-8-[(6-bromo-1,3-benzodioxol-5-yl)thio]-3 H-purin-3-yl}ethyl)piperidine-1-carbaldehyde]
49.00% | Nc1ncn(CCC2CC3CCC(C2)O3)c2nc(Sc3cc4c(cc3Br)OCO4)nc1-2 (centres unmarked) [Example 606]
5.00% | CC12CCC(CC(CCn3cnc(N)c4nc(Sc5cc6c(cc5Br)OCO6)nc3-4)C1)O2 (centres unmarked) [Example 608, 8-[(6-Bromo-1,3-benzodioxol-5-yl)thio]-3-{2-[1-methyl-8-oxabicyclo[3.2.1]oct-3-yl]ethyl}-3 H-purin-6-amine]
22.00% | CCn1nnnc1N1CCC(CCn2cnc(N)c3nc(Sc4cc5c(cc4Br)OCO5)nc2-3)CC1 [Example 611, 8-[(6-Bromo-1,3-benzodioxol-5-yl)thio]-3-{2-[1-(1-ethyl-1 H-tetrazol-5-yl)piperidin-4-yl]ethyl}-3 H-purin-6-amine]
15.00% | CC(C)n1nnnc1N1CCC(CCn2cnc(N)c3nc(Sc4cc5c(cc4Br)OCO5)nc2-3)CC1 [Example 613, 8-[(6-Bromo-1,3-benzodioxol-5-yl)thio]-3-{2-[1-(1-isopropyl-1 H-tetrazol-5-yl)piperidin-4-yl]ethyl}-3 H-purin-6-amine]

same assay, conditions: BODIPY-GM 10 nM, Hsp90 30 nM

IC50 | Compound
> 5 µM | CC(=O)N1CCC(CCn2c(Sc3ccc4c(c3)OC(F)(F)O4)nc3c(N)ncnc32)CC1 [Example 571, 9-[2-(1-Acetylpiperidin-4-yl)ethyl]-8-[(2,2-difluoro-1,3-benzodioxol-5-yl)thio]-9 H-purin-6-amine]
1.4 µM | Nc1ncnc2c1nc(Sc1cc3c(cc1Br)OCO3)n2CCC1CCN(Cc2ccc(Cl)cc2)CC1 [Example 573, 8-[(6-Bromo-1,3-benzodioxol-5-yl)thio]-9-{2-[1-(4-chlorobenzyl)piperidin-4-yl]ethyl}-9 H-purin-6-amine]
1.8 µM | Nc1ncnc2c1nc(Sc1cc3c(cc1Br)OCO3)n2CCNc1cccc2cccnc12 [Example 574, N-(2-{6-Amino-8-[(6-bromo-1,3-benzodioxol-5-yl)thio]-9 H-purin-9-yl}ethyl)quinolin-8-amine]
0.8 µM | N#CC1CCN(CCn2c(Sc3cc4c(cc3Br)OCO4)nc3c(N)ncnc32)CC1 [Example 575, 1-(2-{6-Amino-8-[(6-bromo-1,3-benzodioxol-5-yl)thio]-9 H-purin-9-yl}ethyl)piperidine-4-carbonitrile]
0.14 µM | Nc1ncnc2c1nc(Sc1cc3c(cc1Br)OCO3)n2CCC1CCCN(CC(F)(F)F)C1 (centres unmarked) [Example 577, 8-[(6-Bromo-1,3-benzodioxol-5-yl)thio]-9-{2-[1-(2,2,2-trifluoroethyl)piperidin-3-yl]ethyl}-9 H-purin-6-amine]
0.55 µM | Cc1cc(=O)n(CCn2c(Sc3cc4c(cc3Br)OCO4)nc3c(N)ncnc32)c(=O)[nH]1 [Example 578, 3-(2-{6-amino-8-[(6-bromo-1,3-benzodioxol-5-yl)thio]-9 H-purin-9-yl}ethyl)-6-methylpyrimidine-2,4 (1 H,3 H)-dione]
0.31 µM | Nc1ncnc2c1nc(Sc1cc3c(cc1Br)OCO3)n2CCC1CCN(Cc2ccc(F)cc2)CC1 [Example 579, 8-[(6-Bromo-1,3-benzodioxol-5-yl)thio]-9-{2-[1-(4-fluorobenzyl)piperidin-4-yl]ethyl}-9 H-purin-6-amine]
0.24 µM | Nc1ncnc2c1nc(Sc1cc3c(cc1Br)OCO3)n2CCC1CCN(CC2CCCCC2)CC1 [Example 581, 8-[(6-Bromo-1,3-benzodioxol-5-yl)thio]-9-{2-[1-(cyclohexylmethyl)piperidin-4-yl]ethyl}-9 H-purin-6-amine]
0.9 µM | CC(C)N1CCC(CCn2c(Sc3cc4c(cc3Br)OCO4)nc3c(N)ncnc32)CC1 [Example 582, 8-[(6-Bromo-1,3-benzodioxol-5-yl)thio]-9-[2-(1-isopropylpiperidin-4-yl)ethyl]-9 H-purin-6-amine]
1.4 µM | Nc1ncnc2c1nc(Sc1cc3c(cc1Br)OCO3)n2CCN1CCCC1=O [Example 584, 1-(2-{6-Amino-8-[(6-bromo-1,3-benzodioxol-5-yl)thio]-9 H-purin-9-yl}ethyl)pyrrolidin-2-one]
0.6 µM | Nc1ncnc2c1nc(Sc1cc3c(cc1Br)OCO3)n2CCC1CCN(CC(F)(F)F)CC1 [Example 585, 8-[(6-Bromo-1,3-benzodioxol-5-yl)thio]-9-{2-[1-(2,2,2-trifluoroethyl)piperidin-4-yl]ethyl}-9 H-purin-6-amine]
0.45 µM | Nc1ncnc2c1nc(Sc1cc3c(cc1Br)OCO3)n2CCN1CCOC1=O [Example 586, 3-(2-{6-Amino-8-[(6-bromo-1,3-benzodioxol-5-yl)thio]-9 H-purin-9-yl}ethyl)-1,3-oxazolidin-2-one]
> 2 µM | Nc1ncnc2c1nc(Sc1cc3c(cc1Br)OCO3)n2CCC1CCCCN1CC1CCCCC1 (centres unmarked) [Example 588, 8-[(6-Bromo-1,3-benzodioxol-5-yl)thio]-9-{2-[1-(cyclohexylmethyl)piperidin-2-yl]ethyl}-9 H-purin-6-amine]
0.5 µM | COc1ccc(CN2CCCCC2CCn2c(Sc3cc4c(cc3Br)OCO4)nc3c(N)ncnc32)cc1 (centres unmarked) [Example 590, 8-[(6-Bromo-1,3-benzodioxol-5-yl)thio]-9-{2-[1-(4-methoxybenzyl)piperidin-2-yl]ethyl}-9 H-purin-6-amine]
> 5 µM | Nc1ncnc2c1nc(Sc1cc3c(cc1Br)OCO3)n2CCC1CCCCN1C(=O)OCc1ccccc1 (centres unmarked) [Example 592, Benzyl 2-(2-{6-amino-8-[(6-bromo-1,3-benzodioxol-5-yl)thio]-9 H-purin-9-yl}ethyl)piperidine-1-carboxylate]
0.27 µM | COc1ccc(CN2CCC(CCn3c(Sc4cc5c(cc4Br)OCO5)nc4c(N)ncnc43)CC2)cc1 [Example 594, 8-[(6-Bromo-1,3-benzodioxol-5-yl)thio]-9-{2-[1-(4-methoxybenzyl)piperidin-4-yl]ethyl}-9 H-purin-6-amine]
0.26 µM | Nc1ncnc2c1nc(Sc1cc3c(cc1Br)OCO3)n2CCC1CCN(Cc2ccccc2)CC1 [Example 599, 9-[2-(1-Benzylpiperidin-4-yl)ethyl]-8-[(6-bromo-1,3-benzodioxol-5-yl)thio]-9 H-purin-6-amine]
> 8 µM | CC1(C)COC(CCn2c(Sc3cc4c(cc3Br)OCO4)nc3c(N)ncnc32)CN1 (centres unmarked) [Example 601, 8-[(6-Bromo-1,3-benzodioxol-5-yl)thio]-9-[2-(5,5-dimethylmorpholin-2-yl)ethyl]-9 H-purin-6-amine]
0.19 µM | Nc1ncnc2c1nc(Sc1cc3c(cc1Br)OCO3)n2CC[C@H]1CCCN(C=O)C1 [Example 604, (3R)-3-(2-{6-Amino-8-[(6-bromo-1,3-benzodioxol-5-yl)thio]-9 H-purin-9-yl}ethyl)piperidine-1-carbaldehyde]
0.056 µM | Nc1ncnc2c1nc(Sc1cc3c(cc1Br)OCO3)n2CCC1CC2CCC(C1)O2 (centres unmarked) [Example 605]
0.062 µM | CC12CCC(CC(CCn3c(Sc4cc5c(cc4Br)OCO5)nc4c(N)ncnc43)C1)O2 (centres unmarked) [Example 607, 8-[(6-Bromo-1,3-benzodioxol-5-yl)thio]-9-{2-[1-methyl-8-oxabicyclo[3.2.1]oct-3-yl]ethyl}-9 H-purin-6-amine]
0.045 µM | Cn1nnnc1N1CCC(CCn2c(Sc3cc4c(cc3Br)OCO4)nc3c(N)ncnc32)CC1 [Example 609, 8-[(6-Bromo-1,3-benzodioxol-5-yl)thio]-9-{2-[1-(1-methyl-1 H-tetrazol-5-yl)piperidin-4-yl]ethyl}-9 H-purin-6-amine]
0.088 µM | CCn1nnnc1N1CCC(CCn2c(Sc3cc4c(cc3Br)OCO4)nc3c(N)ncnc32)CC1 [Example 610, 8-[(6-Bromo-1,3-benzodioxol-5-yl)thio]-9-{2-[1-(1-ethyl-1 H-tetrazol-5-yl)piperidin-4-yl]ethyl}-9 H-purin-6-amine]
0.23 µM | CC(C)n1nnnc1N1CCC(CCn2c(Sc3cc4c(cc3Br)OCO4)nc3c(N)ncnc32)CC1 [Example 612, 8-[(6-Bromo-1,3-benzodioxol-5-yl)thio]-9-{2-[1-(1-isopropyl-1 H-tetrazol-5-yl)piperidin-4-yl]ethyl}-9 H-purin-6-amine]
